# Data from US10766884B2 (Pfizer Inc., priority 2018, dated 2020).
# Legend:
# [1] = biological target: CDK6/Cyclin D3 (Homo sapiens (Human), UniProt Q00534); test: CDK6/Cyclin D3 mobility shift assay; type: biochemical; settings: activated CDK6/Cyclin D3, 3.5 mM ATP, Morrison fit; read-out: CDK6_D3 Ki
# [2] = biological target: CDK6 (Homo sapiens (Human), UniProt Q00534); test: Phospho-Serine 795 Rb ELISA assay in MV4-11 cells; type: cell-based; settings: overnight treatment, phospho-Rb S795, read-out: CDK6 pRB S795 ELISA MV4-11 cells IC50
# [3] = biological target: CDK4/Cyclin D1 (Homo sapiens (Human), UniProt P11802); test: CDK4/Cyclin D1 mobility shift assay; type: biochemical; settings: activated CDK4/Cyclin D1, 3.5 mM ATP, Morrison fit; read-out: CDK4D1 Ki
# [4] = biological target: CDK4 (Homo sapiens (Human), UniProt P11802); test: Phospho-Serine 795 Rb ELISA assay in JEKO-1 cells; type: cell-based; settings: overnight treatment, phospho-Rb S795, read-out: CDK4 pRB S795 ELISA JEKO-1 cells IC50
# Chain of CDK4 (P11802 2-303): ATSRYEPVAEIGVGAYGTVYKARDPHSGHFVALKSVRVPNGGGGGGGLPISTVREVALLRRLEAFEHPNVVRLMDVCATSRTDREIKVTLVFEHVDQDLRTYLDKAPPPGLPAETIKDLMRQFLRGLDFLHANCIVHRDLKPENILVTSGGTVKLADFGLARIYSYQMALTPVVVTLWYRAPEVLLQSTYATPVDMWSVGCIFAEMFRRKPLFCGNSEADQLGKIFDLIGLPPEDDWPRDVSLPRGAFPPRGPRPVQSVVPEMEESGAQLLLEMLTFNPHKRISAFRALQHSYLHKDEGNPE
# Chain of CDK4 (P24385 whole entry partner): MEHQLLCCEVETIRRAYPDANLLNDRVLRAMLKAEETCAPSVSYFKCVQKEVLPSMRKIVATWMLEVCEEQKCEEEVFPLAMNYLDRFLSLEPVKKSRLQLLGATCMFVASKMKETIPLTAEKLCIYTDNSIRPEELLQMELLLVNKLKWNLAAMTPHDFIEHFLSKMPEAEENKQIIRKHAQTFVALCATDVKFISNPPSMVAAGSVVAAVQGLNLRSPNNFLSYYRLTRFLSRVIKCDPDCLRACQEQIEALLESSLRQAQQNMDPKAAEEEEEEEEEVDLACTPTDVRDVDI
# Chain of CDK4/Cyclin D1 (P11802 whole entry): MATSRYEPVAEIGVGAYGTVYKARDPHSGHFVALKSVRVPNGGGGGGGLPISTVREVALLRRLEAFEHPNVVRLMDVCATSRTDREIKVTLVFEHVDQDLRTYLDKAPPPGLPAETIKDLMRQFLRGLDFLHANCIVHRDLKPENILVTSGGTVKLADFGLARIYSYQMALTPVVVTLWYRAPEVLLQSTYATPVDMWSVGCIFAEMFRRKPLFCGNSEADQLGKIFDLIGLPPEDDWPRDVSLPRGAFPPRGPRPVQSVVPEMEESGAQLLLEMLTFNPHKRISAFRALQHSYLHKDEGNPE
# Chain of CDK4/Cyclin D1 (P24385 whole entry partner): as the sequence (P24385 whole entry partner) above
# Chain of CDK6 (Q00534 whole entry): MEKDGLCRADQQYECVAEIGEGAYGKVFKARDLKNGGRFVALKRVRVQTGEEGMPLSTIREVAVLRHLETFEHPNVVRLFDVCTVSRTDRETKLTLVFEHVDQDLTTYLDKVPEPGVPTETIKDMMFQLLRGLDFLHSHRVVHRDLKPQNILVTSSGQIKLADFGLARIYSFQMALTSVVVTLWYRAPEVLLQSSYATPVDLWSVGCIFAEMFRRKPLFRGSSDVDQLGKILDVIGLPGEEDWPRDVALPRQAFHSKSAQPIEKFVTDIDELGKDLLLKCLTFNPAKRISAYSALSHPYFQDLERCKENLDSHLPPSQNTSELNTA
# Chain of CDK6 (P30281 whole entry partner): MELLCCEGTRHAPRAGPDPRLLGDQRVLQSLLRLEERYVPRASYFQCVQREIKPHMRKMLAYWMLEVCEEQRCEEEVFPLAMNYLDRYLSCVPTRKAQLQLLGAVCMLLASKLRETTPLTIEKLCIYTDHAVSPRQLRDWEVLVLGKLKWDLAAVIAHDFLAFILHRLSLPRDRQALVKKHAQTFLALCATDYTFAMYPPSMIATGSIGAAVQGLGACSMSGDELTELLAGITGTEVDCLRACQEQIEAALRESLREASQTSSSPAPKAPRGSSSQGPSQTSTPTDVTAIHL
# Chain of CDK6/Cyclin D3 (Q00534 whole entry): as the sequence (Q00534 whole entry) above
# Chain of CDK6/Cyclin D3 (P30281 whole entry partner): as the sequence (P30281 whole entry partner) above
structure (smiles),measurement,setting,value
"Cc1nc2c(F)cc(-c3nc(N[C@@H]4CCN(S(C)(=O)=O)C[C@H]4O)ncc3C#N)cc2n1C(C)C [Example B01, 4-[4-fluoro-2-methyl-1-(propan-2-yl)-1H-benzimidazol-6-yl]-2-{[(3R,4R)-3-hydroxy-1-(methanesulfonyl)piperidin-4-yl]amino}pyrimidine-5-carbonitrile]",Ki,[1],1.5 nM
same,IC50,[2],129 nM
same,Ki,[3],0.1 nM
same,IC50,[4],65.6 nM
Cc1nc2cc(F)c(-c3nc(N[C@@H]4CCN(S(C)(=O)=O)C[C@H]4O)ncc3F)cc2n1C(C)C [Example A07],Ki,[1],28 nM
same,IC50,[2],520 nM
same,Ki,[3],1.8 nM
same,IC50,[4],182 nM
"CC(C)n1c(C(C)(O)C2CC2)nc2c(F)cc(-c3nc(N[C@@H]4CCOC[C@H]4O)ncc3Cl)cc21 (single isomer, unassigned) [Example A23]",Ki,[1],11.6 nM
same,IC50,[2],84.1 nM
same,Ki,[3],0.5 nM
same,IC50,[4],26.5 nM
"Cc1nc2c(F)cc(-c3nc(N[C@@H]4CCN(S(C)(=O)=O)C[C@H]4O)ncc3Cl)cc2n1C1COC1 [Example A89, (3R,4R)-4-({5-chloro-4-[4-fluoro-2-methyl-1-(oxetan-3-yl)-1H-benzimidazol-6-yl]pyrimidin-2-yl}amino)-1-(methanesulfonyl)piperidin-3-ol]",Ki,[1],12 nM
same,IC50,[2],570 nM
same,Ki,[3],0.5 nM
same,IC50,[4],118 nM
"CC1(C)OCCn2nc3c(F)cc(-c4nc(N[C@@H]5CCOC[C@H]5O)ncc4F)cc3c21 [Example A80, 1,5-anhydro-2,3-dideoxy-3-{[5-fluoro-4-(7-fluoro-1,1-dimethyl-3,4-dihydro-1H-[1,4]oxazino[4,3-b]indazol-9-yl)pyrimidin-2-yl]amino}-D-threo-pentitol]",Ki,[1],14.7 nM
same,IC50,[2],217 nM
same,Ki,[3],0.5 nM
same,IC50,[4],72.9 nM
"CC(C)(C)n1cnc2c(F)cc(-c3nc(N[C@@H]4CCN(C(=O)C5(F)CNC5)C[C@H]4O)ncc3Cl)cc21 [Example F26, [(3R,4R)-4-{[4-(1-tert-butyl-4-fluoro-1H-benzimidazol-6-yl)-5-chloropyrimidin-2-yl]amino}-3-hydroxypiperidin-1-yl](3-fluoroazetidin-3-yl)methanone]",Ki,[1],4.6 nM
same,IC50,[2],182 nM
same,Ki,[3],0.1 nM
same,IC50,[4],143 nM
"CC(C)n1c(CN2CC(C)(O)C2)nc2c(F)cc(-c3nc(N[C@@H]4CCOC[C@H]4O)ncc3Cl)cc21 [Example H01, 1,5-anhydro-3-[(5-chloro-4-{4-fluoro-2-[(3-hydroxy-3-methylazetidin-1-yl)methyl]-1-(propan-2-yl)-1H-benzimidazol-6-yl}pyrimidin-2-yl)amino]-2,3-dideoxy-D-threo-pentitol]",Ki,[1],127 nM
same,IC50,[2],858 nM
same,Ki,[3],2.4 nM
same,IC50,[4],137 nM
"CC(C)(CN)n1cnc2c(F)cc(-c3nc(N[C@@H]4CCOC[C@H]4O)ncc3Cl)cc21 [Example A51, 3-({4-[1-(1-amino-2-methylpropan-2-yl)-4-fluoro-1H-benzimidazol-6-yl]-5-chloropyrimidin-2-yl}amino)-1,5-anhydro-2,3-dideoxy-D-threo-pentitol]",Ki,[1],55.7 nM
same,IC50,[2],1530 nM
same,Ki,[3],2 nM
same,IC50,[4],245 nM
"Cc1nc2c(F)cc(-c3nc(N[C@@H]4CCN(C(=O)CO)C[C@H]4O)ncc3F)cc2n1C(C)C [Example F17, 1-[(3R,4R)-4-({5-fluoro-4-[4-fluoro-2-methyl-1-(propan-2-yl)-1H-benzimidazol-6-yl]pyrimidin-2-yl}amino)-3-hydroxypiperidin-1-yl]-2-hydroxyethan-1-one]",Ki,[1],8.3 nM
same,IC50,[2],127 nM
same,Ki,[3],0.5 nM
same,IC50,[4],83.2 nM
"Cc1nc2ccc(-c3nc(N[C@@H]4CCN(S(C)(=O)=O)C[C@H]4O)ncc3F)cc2n1C(C)(C)C [Example A78, (3R,4R)-4-{[4-(1-tert-butyl-2-methyl-1H-benzimidazol-6-yl)-5-fluoropyrimidin-2-yl]amino}-1-(methanesulfonyl)piperidin-3-ol]",Ki,[1],1.8 nM
same,IC50,[2],73.9 nM
same,Ki,[3],0.1 nM
same,IC50,[4],26.4 nM
"CC(C)n1cnc2c(F)cc(-c3nc(N[C@@H]4CCN(C(=O)C5(F)CNC5)C[C@H]4O)ncc3Cl)cc21 [Example F27, [(3R,4R)-4-({5-chloro-4-[4-fluoro-1-(propan-2-yl)-1H-benzimidazol-6-yl]pyrimidin-2-yl}amino)-3-hydroxypiperidin-1-yl](3-fluoroazetidin-3-yl)methanone]",Ki,[1],5.1 nM
same,IC50,[2],188 nM
same,Ki,[3],0.5 nM
same,IC50,[4],60.8 nM
